Active and inactive are the calls of the source. The rule behind the calls is not given here.
Legend:
[1] = tested on: Staphylococcus aureus; test: Antibacterial activity against Staphylococcus aureus ATCC 29213 incubated for 16 to 18 hrs by broth dilution method; type: functional; details: time 16-18 hrs
[2] = tested on: Staphylococcus aureus; test: Antibacterial activity against methicillin resistant Staphylococcus aureus N315 incubated for 16 to 18 hrs by broth dilution method; type: functional; details: time 16-18 hrs
[3] = tested on: Staphylococcus aureus; test: Antibacterial activity against methicillin resistant Staphylococcus aureus M11 incubated for 16 to 18 hrs by broth dilution method; type: functional; details: time 16-18 hrs
[4] = tested on: Staphylococcus aureus; test: Antibacterial activity against methicillin resistant Staphylococcus aureus M12 incubated for 16 to 18 hrs by broth dilution method; type: functional; details: time 16-18 hrs
[5] = tested on: Staphylococcus aureus; test: Antibacterial activity against methicillin resistant Staphylococcus aureus M13 incubated for 16 to 18 hrs by broth dilution method; type: functional; details: time 16-18 hrs
[6] = tested on: Staphylococcus aureus; test: Antibacterial activity against methicillin resistant Staphylococcus aureus M14 incubated for 16 to 18 hrs by broth dilution method; type: functional; details: time 16-18 hrs
[7] = tested on: Staphylococcus aureus; test: Antibacterial activity against Staphylococcus aureus ATCC 29213 after 20 passages incubated for 16 to 18 hrs; type: functional; details: time 16-18 hrs
[8] = tested on: Cell membrane; test: Induction of membrane permeability in methicillin resistant Staphylococcus aureus 20 at 16 to 64 ug/ml measured at 2 mins interval over 20 mins by SYTOX green staining based assay; details: dose 16-64 µg/ml
[9] = tested on: Cell membrane; test: Induction of membrane depolarization in methicillin resistant Staphylococcus aureus 20 assessed as increase in fluorescence intensity measured at 2 mins interval over 20 mins by DiSC3(5) staining based assay; details: dose 16-64 µg/ml
[10] = tested on: Cell membrane; test: Induction of membrane depolarization in methicillin resistant Staphylococcus aureus 20 assessed as fold increase in fluorescence intensity at 32 times MIC measured at 2 mins interval over 20 mins by DiSC3(5) staining based assay relative to control; type: cell membranes
[11] = tested on: Staphylococcus aureus; test: Antibacterial activity against methicillin resistant Staphylococcus aureus 20 incubated for 16 to 18 hrs in presence of 2 to 64 ug/ml phosphatidylglycerol by checkerboard broth dilution method; type: functional, organism-based; details: time 16-18 hrs
[12] = tested on: Staphylococcus aureus; test: Antibacterial activity against methicillin resistant Staphylococcus aureus 20 incubated for 16 to 18 hrs in presence of 2 to 64 ug/ml cardiolipin by checkerboard broth dilution method; type: functional, organism-based; details: time 16-18 hrs
[13] = tested on: Staphylococcus aureus; test: Antibacterial activity against methicillin resistant Staphylococcus aureus 20 incubated for 16 to 18 hrs in presence of 32 ug/ml phosphatidylglycerol by checkerboard broth dilution method; type: functional; details: time 16-18 hrs
[14] = tested on: Staphylococcus aureus; test: Antibacterial activity against methicillin resistant Staphylococcus aureus 20 incubated for 16 to 18 hrs in presence of 2 to 64 ug/ml peptidoglycan by checkerboard broth dilution method; type: functional, organism-based; details: time 16-18 hrs
[15] = tested on: Cell membrane; test: Induction of membrane disruption in methicillin resistant Staphylococcus aureus 20 assessed as DNA leakage incubated for 4 hrs by microspectrophotometer analysis; type: cell membranes; details: dose 2-16 µg/ml
[16] = tested on: Cell membrane; test: Induction of membrane disruption in methicillin resistant Staphylococcus aureus 20 assessed as increase in intracellular ROS level incubated for 1 hr by DCFH-DA staining based analysis; type: cell membranes; details: dose 2-128 µg/ml
[17] = tested on: Staphylococcus aureus; test: Upregulation of mspA gene expression in methicillin resistant Staphylococcus aureus N315 at 4 ug/ml incubated for 4 hrs by RNA-sequencing analysis; type: functional; details: dose 4.0 µg/ml
[18] = tested on: Staphylococcus aureus; test: Upregulation of gpsB gene expression in methicillin resistant Staphylococcus aureus N315 at 4 ug/ml incubated for 4 hrs by RNA-sequencing analysis; type: functional; details: dose 4.0 µg/ml
[19] = tested on: Staphylococcus aureus; test: Downregulation of sasA gene expression in methicillin resistant Staphylococcus aureus N315 at 4 ug/ml incubated for 4 hrs by RNA-sequencing analysis; type: functional; details: dose 4.0 µg/ml
[20] = tested on: Staphylococcus aureus; test: Inhibition of arginine synthesis in methicillin resistant Staphylococcus aureus N315 at 4 ug/ml incubated for 4 hrs by RNA-sequencing analysis; type: functional, organism-based; details: dose 4.0 µg/ml
[21] = tested on: Staphylococcus aureus; test: Inhibition of proline synthesis in methicillin resistant Staphylococcus aureus N315 at 4 ug/ml incubated for 4 hrs by RNA-sequencing analysis; type: functional, organism-based; details: dose 4.0 µg/ml
[22] = tested on: L02; test: Cytotoxicity against human L02 cells assessed as reduction in cell viability incubated for 24 hrs by CCK8 assay; type: toxicity, cell-based; details: l02, 24 h
[23] = Toxicity in Kunming mouse assessed as effect on survival at 5 to 80 mg/kg, sc measured after 24 hrs; type: organism-based; details: in vivo, dose 5-80 mg/kg
[24] = Toxicity in Kunming mouse assessed as skin redness at 40 to 80 mg/kg, sc measured after 24 hrs; type: organism-based; details: in vivo, dose 40-80 mg/kg
[25] = Toxicity in Kunming mouse assessed as skin swelling at 40 to 80 mg/kg, sc measured after 24 hrs; type: organism-based; details: in vivo, dose 40-80 mg/kg
[26] = Toxicity in Kunming mouse assessed as change in red blood cell counts at 20 mg/kg, sc measured after 24 hrs; type: organism-based; details: in vivo
[27] = Toxicity in Kunming mouse assessed as change in hematocrit level at 20 mg/kg, sc measured after 24 hrs; type: organism-based; details: in vivo
[28] = Toxicity in Kunming mouse assessed as change in albumin level at 20 mg/kg, sc measured after 24 hrs; type: organism-based; details: in vivo
[29] = Toxicity in Kunming mouse assessed as skin abnormalities at 20 mg/kg, sc measured after 24 hrs; type: organism-based; details: in vivo
[30] = Toxicity in Kunming mouse assessed as heart abnormalities at 10 mg/kg, sc measured after 24 hrs; type: organism-based; details: in vivo
[31] = Toxicity in Kunming mouse assessed as liver abnormalities at 10 mg/kg, sc measured after 24 hrs; type: organism-based; details: in vivo
[32] = Toxicity in Kunming mouse assessed as kidney abnormalities at 10 mg/kg, sc measured after 24 hrs; type: organism-based; details: in vivo
[33] = tested on: Staphylococcus aureus; test: Antibacterial activity against methicillin resistant Staphylococcus aureus 20 infected in Kunming mouse skin abscess model assessed as appearance of smooth back skin at 10 mg/kg, sc measured after 2 hrs; type: functional, organism-based
[34] = tested on: Staphylococcus aureus; test: Antibacterial activity against methicillin resistant Staphylococcus aureus 20 infected in Kunming mouse skin abscess model assessed as reduction in severity of skin abscess at 5 mg/kg, sc measured after 2 hrs; type: functional, organism-based
[35] = tested on: Staphylococcus aureus; test: Antibacterial activity against methicillin resistant Staphylococcus aureus 20 infected in Kunming mouse skin abscess model assessed as reduction in inflammatory cells in infection sites at 5 to 10 mg/kg, sc measured after 2 hrs; type: functional, organism-based; details: dose 5-10 mg/kg
[36] = tested on: Staphylococcus aureus; test: Antibacterial activity against methicillin resistant Staphylococcus aureus 20 infected in Kunming mouse skin abscess model assessed as reduction in inflammatory cell infiltration in dermal layer at 10 mg/kg, sc measured after 2 hrs; type: functional, organism-based
[37] = tested on: Staphylococcus aureus; test: Antibacterial activity against methicillin resistant Staphylococcus aureus 20 infected in Kunming mouse skin abscess model assessed as reduction in bacterial load at 5 mg/kg, sc measured after 2 hrs; type: functional; parameters: scale not given: the % may be the effect or the level left
[38] = Toxicity in Kunming mouse skin abscess model infected with methicillin resistant Staphylococcus aureus assessed as heart damage at 5 to 10 mg/kg, sc measured after 2 hrs by H and E staining based assay; type: organism-based; details: in vivo, dose 5-10 mg/kg
[39] = Toxicity in Kunming mouse skin abscess model infected with methicillin resistant Staphylococcus aureus assessed as liver damage at 5 to 10 mg/kg, sc measured after 2 hrs by H and E staining based assay; type: organism-based; details: in vivo, dose 5-10 mg/kg
[40] = Toxicity in Kunming mouse skin abscess model infected with methicillin resistant Staphylococcus aureus assessed as spleen damage at 5 to 10 mg/kg, sc measured after 2 hrs by H and E staining based assay; type: organism-based; details: in vivo, dose 5-10 mg/kg
[41] = tested on: Cell membrane; test: Induction of membrane disruption in methicillin resistant Staphylococcus aureus 20 assessed as viable cells with intact membrane at 8 ug/ml incubated for 2 hrs by SYTO9/PI staining based flow cytometry analysis (reference value: 98.7%); type: cell membranes; details: dose 8.0 µg/ml

For `C=CCc1cc(-c2ccc(OCCC[N+](C)(C)CC(=O)NCCCC)c(CC=C)c2)c2oc(-c3c(Cl)cccc3Cl)nc2c1.[Br-]`, the MIC [1] was 2 µg/mL, the MIC [2] was 4 µg/mL and the MIC [3] was 4 µg/mL. The MIC [4] was 4 µg/mL, the MIC [5] was 8 µg/mL and the MIC [6] was 2 µg/mL. For the same compound, the MIC [7] was 2 µg/mL, the Activity [8] was “Active” and the Activity [9] was “Dose-Dependent Effect”. For the same compound, the fold change (FC) [10] was 8, the Activity [11] was “inactive” and the Activity [12] was “inactive”. The MIC [13] was 32 µg/mL, the Activity [14] was “Active” and the Activity [15] was “Dose-Dependent Effect”. For the same compound, the Activity [16] was “Dose-Dependent Effect”, the Activity [17] was “Active” and the Activity [18] was “Active”. The Activity [19] was “Active”, the inhibition [20] was “Active” and the inhibition [21] was “Active”. For the same compound, the Activity [22] was “Dose-Dependent Effect”, the Activity [23] was “Non-Toxic” and the Activity [24] was “Toxic”. For the same compound, the Activity [25] was “Toxic”, the Activity [26] was “Non-Toxic” and the Activity [27] was “Non-Toxic”. For the same compound, the Activity [28] was “Non-Toxic”, the Activity [29] was “Non-Toxic” and the Activity [30] was “Non-Toxic”. For the same compound, the Activity [31] was “Non-Toxic”, the Activity [32] was “Non-Toxic” and the Activity [33] was “Active”. The Activity [34] was “Active”, the Activity [35] was “Active” and the Activity [36] was “Active”. The Activity [37] was 96.54%, the Activity [38] was “Non-Toxic” and the Activity [39] was “Non-Toxic”. The Activity [40] was “Non-Toxic” and the Activity [41] was 61.6%.

Reference: ChEMBL document CHEMBL5608246, “Membrane-Targeting Amphiphilic Honokiol Derivatives Containing an Oxazole Moiety as Potential Antibacterials against Methicillin-Resistant Staphylococcus aureus” (J Med Chem, 2024)
